Experiment: gradient 5% acetonitrile 3 min, to 50% in 2 min, to 85% in 15 min, held 3 min, 100 µL/min
Details: column: Zorbax Extend-C18 2.1 x 50 mm; eluents: water / acetonitrile, 0.1% formic acid
Procedure, shortened: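 Retention time was recorded from adduct peaks, which were picked computationally and each inspected manually. Pure standards ran in mixtures of ~100 molecules on HPLC coupled to a quadrupole time-of-flight mass spectrometer, in positive and negative ionization mode, through a Zorbax Extend-C18 column (2.1 × 50 mm, 1.8 μm) at 100 μL/min. Eluents were water and acetonitrile, each with 0.1% formic acid.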

| RP-LC retention time | SMILES |
| --- | --- |
| 734 s | CCCC(=O)Nc1ccc(CCc2nc3ccc(C(=O)NCCC4=CCCCC4)cc3[nH]2)cc1 |
| 853 s | CC(=O)c1ccc(N2CCN(c3ccc(NC(=O)C4CCC4)c(C(=O)O)c3)CC2)cc1 |
| 840 s | COc1ccc(-c2ccnc3nc(C(C)C)nn23)c(F)c1 |
| 1080 s | COc1ccc(-c2noc(Cn3nc(-c4ccc(Cl)cc4)ccc3=O)n2)cc1 |
| 638 s | COc1ccc(C(=O)NC2CCN(c3cc(-c4cccs4)[nH]n3)C2)cc1OC (stereo unspecified) |
| 658 s | CNCc1ccc(-c2ccc(Cl)cc2Cl)o1 |
| 910 s | CCC(c1cccs1)N1C(=O)[C@H]2CN(S(=O)(=O)c3ccc(OC)cc3)C[C@H]2C1=O (stereo partly specified) |
| 812 s | CSc1cccc(NC(=O)C2CCN(S(=O)(=O)c3cn(C(C)C)cn3)CC2)c1 |
| 955 s | Cc1cc(C)cc(NC(=O)C2CCCN(S(=O)(=O)c3c[nH]c(C(=O)N4CCCCCC4)c3)C2)c1 (stereo unspecified) |
| 906 s | COc1cc(C(=O)N2CCCC2c2nc(-c3ccccc3Cl)no2)cc(OC)c1OC (stereo unspecified) |
| 749 s | Cc1cc(C)n(-c2cc(N3CCCC(C(=O)Nc4nccs4)C3)ncn2)n1 (stereo unspecified) |
| 552 s | Cc1cc(C)c2c(N3CCSCC3)nc(C(=O)NCCCN3CCCC3)nc2n1 |
| 890 s | Cc1cc(N2CCN(S(=O)(=O)c3cccc(C(F)(F)F)c3)CC2)nc(NC2CCCCC2)n1 |
| 781 s | Cc1ccc(NC(=O)Cc2nnc3ccc(-c4nc(C)no4)cn23)c(C)c1 |
| 910 s | CCOc1ccc(C(=O)NCCc2c[nH]c3ccc(C)cc23)cc1OCC |
| 543 s | CN1CCCC1c1nc(C2CN(C(=O)c3ccnn3C)C2)no1 (stereo unspecified) |
| 1160 s | Cc1nn(Cc2cccc(C(=O)Nc3nc(-c4ccccc4)cs3)c2)c(C)c1Cl |
| 613 s | O=C(NCCN1CCN(c2ccc(Cl)cc2)CC1)C(=O)Nc1cc(F)ccc1F |
| 637 s | CCOC(=O)N1CCN(/C=C2\Oc3c(ccc(O)c3C)C2=O)CC1 |
| 616 s | CCOC(=O)c1[nH]c(C)c(CCC(=O)NCCN2CCCCCC2)c1C |
| 681 s | CCOC(=O)c1cnc(Nc2nc(C)c3cc(OC)ccc3n2)nc1C |
| 828 s | CCN1C(=O)c2cccnc2Sc2cc(NC(=O)c3ccccc3Cl)ccc21 |

| RP-LC retention time | SMILES |
| --- | --- |
| 932 s | CN(CCc1noc(-c2ccc(Cl)cc2)n1)C(=O)NCc1ccccc1 |
| 874 s | COC(=O)C1=CN(c2cc(OC)ccc2OC)c2ccc(F)cc2S1(=O)=O |
| 722 s | Cc1cc(C)cc(NC(=O)N2CCCC2c2nncn2C2CCCC2)c1 (stereo unspecified) |
| 644 s | Cn1c(C2CCN(C(=O)NCc3ccc(F)cc3)CC2)cc(=O)n2nccc12 |
| 818 s | CN(CC1(C)CCOCC1)C(=O)Cc1ccccc1Cl |
| 677 s | COCCN1C(=O)c2cccn2CC1CNS(=O)(=O)c1cccc2nsnc12 (stereo unspecified) |
| 852 s | Cc1ccc(C)c2sc(NC(=O)c3cccc(N4C(=O)CCC4=O)c3)nc12 |
| 561 s | CCOc1ccccc1NC(=O)N1CC(N(CC)C2CCOCC2)C1 |
| 874 s | Cc1ccc(-c2cc3c4nn(CC(=O)NCc5ccco5)c(=O)n4ccn3n2)cc1C |
| 747 s | CCn1cnc(S(=O)(=O)N2CCC(C(=O)NCc3ccc(Br)cc3)CC2)c1 |
| 1230 s | CC(C)(C)c1cc(NCc2ccccn2)n2ncc(-c3ccccc3)c2n1 |
| 789 s | Cc1nc(-c2nnn(-c3ccc(F)cc3)c2C)no1 |
| 826 s | CCOC(=O)C1CCCN(C(=O)Cn2c3ccccc3c3cnn(C)c(=O)c32)C1 (stereo unspecified) |
| 954 s | O=c1ccn(-c2ccc(Cl)cc2)nc1-c1nc(-c2cccc(F)c2)no1 |
| 830 s | CCCn1cc(CCNS(=O)(=O)c2ccccc2C)c2cccnc21 |
| 850 s | Cc1c(Cl)cccc1N1C(=O)CN(S(C)(=O)=O)CC1(C)C(=O)NCc1ccccc1 (stereo unspecified) |
| 941 s | COc1ccccc1NC(=O)N1CCCC1c1nc(-c2cccc(Cl)c2)no1 (stereo unspecified) |
| 981 s | COc1ccc(CNC(=O)C2(C)CCCN(S(=O)(=O)c3ccc(Cl)cc3)C2)cc1 (stereo unspecified) |
| 597 s | CCC1CCCCN1CCNC(=O)Cn1c(=O)n(-c2ccccc2)c2ncccc21 (stereo unspecified) |
| 1100 s | CCOc1ccccc1NC(=O)Cn1cccc(-c2nc(-c3ccc(Br)cc3)no2)c1=O |
| 959 s | COc1ccc(C2(c3nc(CCS(=O)(=O)c4ccccc4)no3)CC2)cc1 |
| 612 s | CCOc1ccccc1NC(=O)CN1CCN(c2nccn2-c2ccc(C)cc2)CC1 |

| RP-LC retention time | SMILES |
| --- | --- |
| 809 s | Cc1ccc2c(c1)NN=C(C(=O)N1CCC(C)CC1)S2(=O)=O |
| 884 s | CCCN1C(=O)COc2ccc(-c3noc(CNS(=O)(=O)c4ccc(F)cc4)n3)cc21 |
| 740 s | Cc1cccc2nnc(N3CCC(C(=O)NCc4ccc(C(F)(F)F)cc4)CC3)n12 |
| 935 s | CCOC(=O)c1c(S(=O)(=O)N2CCC(C(=O)Nc3ccc(F)c(Cl)c3)CC2)c(C)n(C)c1C |
| 638 s | COCCCNC(=O)C1CC(=O)N(c2n[nH]c3cccc(F)c23)C1 (stereo unspecified) |
| 1170 s | CCCN1C(=O)c2cc(S(=O)(=O)N3CCCCC3C)ccc2Oc2cccnc21 (stereo unspecified) |
| 694 s | Cc1cc(C(=O)N2CCCC(c3nnc(-c4cccs4)o3)C2)no1 (stereo unspecified) |
| 1130 s | CCc1cccc(NS(=O)(=O)c2c(C)sc(C)c2-c2cc(C)[nH]n2)c1 |
| 590 s | COC(=O)c1cc(S(=O)(=O)N2CCCC2C(=O)NCc2ccccn2)cn1C (stereo unspecified) |
| 670 s | COc1ccccc1CC(=O)Nc1ccc2c(c1)CCC(=O)N2 |
| 766 s | O=C(C1CCCN(c2ncnc3c2nc2n3CCCCC2)C1)N1CCCCCC1 (stereo unspecified) |
| 599 s | O=C(NCCN1CCOCC1)c1cccc(Nc2c(-c3ccc(Cl)cc3)nc3cnccn23)c1 |
| 829 s | Cc1nnc(-c2cn(CC(=O)Nc3ccccc3Br)c3ccccc23)o1 |
| 714 s | COc1ccc(S(=O)(=O)NCc2cccnc2-c2ccc(F)cc2)cc1 |
| 811 s | COc1ccc(NC(=O)Cn2ccc3ccc(-c4nnc(C)o4)cc32)cc1Cl |
| 938 s | CCOc1cccc(-c2noc(-c3nn(-c4ccc(OC)cc4)ccc3=O)n2)c1 |
| 760 s | CCn1c(CN(c2ccc(F)cc2)S(C)(=O)=O)nnc1SCc1nnc(-c2ccccc2)o1 |
| 846 s | CC(C(=O)N1CCCN(c2cc(=O)n(C(C)C)c(=O)n2C(C)C)CC1)N1C(=O)COc2ccccc21 (stereo unspecified) |
| 884 s | COC(=O)c1ccccc1NC(=O)Cn1ccn2nc(-c3ccccc3)c(CO)c2c1=O |
| 695 s | Fc1ccccc1-c1ccc(CNCc2ccc3c(c2)OCO3)o1 |
| 763 s | Clc1cc(N2CCSCC2)ncn1 |
| 695 s | COc1cccc(CNC2=NCCNC23CCN(S(=O)(=O)c2ccc(F)cc2)CC3)c1 |
